According to ChEMBL document CHEMBL1142818, “Identification of heteroarylenamines as a new class of antituberculosis lead molecules” (Bioorg Med Chem Lett, 2005):
In brackets after ≈: the same amount, converted by molar mass.

Key:
[1] = test system: Mycobacterium tuberculosis; experiment: Minimum inhibitory concentration against Mycobacterium tuberculosis H37Rv pFPCA1 in green fluorescent protein microplate assay; type: functional
[2] = test system: Vero; experiment: Selectivity ratio for IC50 of VERO cells to that of MIC of Mycobacterium tuberculosis H37Rv; d = Poor solubility prevented determination of activity; type: functional, cell-based; details: Chlorocebus sabaeus
[3] = test system: Vero; experiment: Inhibitory concentration required to produce cytotoxicity against VERO cells; d = Poor solubility prevented determination of activity; type: functional, cell-based, Chlorocebus sabaeus
[4] = test system: Vero; experiment: Selectivity ratio for IC50 of VERO cells to that of MIC of Mycobacterium tuberculosis H37Rv; type: functional, Chlorocebus sabaeus
[5] = test system: Vero; experiment: Inhibitory concentration required to produce cytotoxicity against VERO cells; type: functional, cell-based; details: Chlorocebus sabaeus
[6] = test system: Mycobacterium tuberculosis; experiment: Minimum inhibitory concentration against Mycobacterium tuberculosis H37Rv; Range 0.125-0.25 ug/mL; type: functional

Compound: NNC(=O)c1ccncc1 [ISONIAZID]
- MIC [1]: < 0.2 µg/mL

Compound: C=C(C=O)c1c2c(nc3ccccc13)C(=O)c1ccccc1C2=O
- Selectivity [2]: Poor solubility
- MIC [1]: 0.2 µg/mL (≈ 0.638 µM)
- IC50 [3]: Poor solubility

Compound: NC[C@H]1O[C@H](O[C@H]2[C@H](O)[C@@H](O[C@H]3O[C@H](CO)[C@@H](O)[C@H](N)[C@H]3O)[C@H](N)C[C@@H]2N)[C@H](O)[C@@H](O)[C@@H]1O [KANAMYCIN]
- MIC [1]: < 0.2 µg/mL

Compound: CN(C)/C=C/c1ccnc2c1C(=O)c1ccccc1C2=O
- Selectivity [4]: 5.8
- IC50 [5]: 9.1 µg/mL (≈ 32.7 µM)
- MIC [1]: 1.56 µg/mL (≈ 5.61 µM)

Compound: CN(C)/C=C/c1c2c(nc3ccccc13)C(=O)c1ccccc1C2=O
- Selectivity [4]: 15.1
- IC50 [5]: 5.9 µg/mL (≈ 18 µM)
- MIC [1]: 0.39 µg/mL (≈ 1.19 µM)

Compound: CN(C)/C=C/c1cccc2nc3ccccc3cc12
- MIC [1]: 21 µg/mL (≈ 84.6 µM)

Compound: CC[C@@H](CO)NCCN[C@@H](CC)CO [ETHAMBUTOL]
- MIC [1]: < 0.2 µg/mL

Compound: CN(C)/C=C/c1c2c(nc3ccccc13)C(=O)c1cccnc1C2=O
- Selectivity [4]: <0.08
- IC50 [5]: < 0.26 µg/mL
- MIC [1]: 3.13 µg/mL (≈ 9.5 µM)

Compound: O=C(O)c1cn(C2CC2)c2cc(N3CCNCC3)c(F)cc2c1=O [CIPROFLOXACIN]
- MIC [1]: < 0.2 µg/mL

Compound: CN(C)CCc1c2c(nc3ccccc13)C(=O)c1ccccc1C2=O
- Selectivity [4]: 4.5
- IC50 [5]: 3.5 µg/mL (≈ 10.6 µM)
- MIC [1]: 0.78 µg/mL (≈ 2.36 µM)

Compound: Cc1c2c(nc3ccccc13)C(=O)c1cccnc1C2=O
- Selectivity [2]: Poor solubility
- MIC [1]: 6.25 µg/mL (≈ 22.8 µM)
- IC50 [3]: Poor solubility

Compound: CO[C@H]1/C=C/O[C@@]2(C)Oc3c(C)c(O)c4c(O)c(c(/C=N/N5CCN(C)CC5)c(O)c4c3C2=O)NC(=O)/C(C)=C\C=C\[C@H](C)[C@H](O)[C@@H](C)[C@@H](O)[C@@H](C)[C@H](OC(C)=O)[C@@H]1C [RIFAMPIN]
- Selectivity [4]: 400
- MIC [6]: 0.25 µg/mL (≈ 0.304 µM)
- IC50 [5]: 100 µg/mL (≈ 122 µM)

Compound: Cc1c2c(nc3ccccc13)C(=O)c1ccccc1C2=O
- Selectivity [2]: Poor solubility
- MIC [1]: 1.56 µg/mL (≈ 5.71 µM)
- IC50 [3]: Poor solubility

Compound: CN(C)CCc1c2c(nc3ccccc13)C(=O)c1cccnc1C2=O
- Selectivity [4]: 0.45
- IC50 [5]: 1.4 µg/mL (≈ 4.22 µM)
- MIC [1]: 3.13 µg/mL (≈ 9.45 µM)

Compound: O=C1c2cccnc2-c2nccc3c2c1nc1ccccc13 [ASCIDIDEMIN]
- Selectivity [4]: <0.4
- IC50 [5]: < 0.04 µg/mL
- MIC [1]: 0.1 µg/mL (≈ 0.353 µM)
